{"source": "patent US12268697B2", "about": "“Oxysterols and methods of use thereof” (Sage Therapeutics, Inc., priority 2015, dated 2025)", "target": "T1, GlunN1/GluN2A glutamate receptors (Homo sapiens, UniProt Q05586+Q12879)", "T1 construct": "expressed in transfected cells", "T1 sequence (Q12879 23-1464, other chains not shown)": "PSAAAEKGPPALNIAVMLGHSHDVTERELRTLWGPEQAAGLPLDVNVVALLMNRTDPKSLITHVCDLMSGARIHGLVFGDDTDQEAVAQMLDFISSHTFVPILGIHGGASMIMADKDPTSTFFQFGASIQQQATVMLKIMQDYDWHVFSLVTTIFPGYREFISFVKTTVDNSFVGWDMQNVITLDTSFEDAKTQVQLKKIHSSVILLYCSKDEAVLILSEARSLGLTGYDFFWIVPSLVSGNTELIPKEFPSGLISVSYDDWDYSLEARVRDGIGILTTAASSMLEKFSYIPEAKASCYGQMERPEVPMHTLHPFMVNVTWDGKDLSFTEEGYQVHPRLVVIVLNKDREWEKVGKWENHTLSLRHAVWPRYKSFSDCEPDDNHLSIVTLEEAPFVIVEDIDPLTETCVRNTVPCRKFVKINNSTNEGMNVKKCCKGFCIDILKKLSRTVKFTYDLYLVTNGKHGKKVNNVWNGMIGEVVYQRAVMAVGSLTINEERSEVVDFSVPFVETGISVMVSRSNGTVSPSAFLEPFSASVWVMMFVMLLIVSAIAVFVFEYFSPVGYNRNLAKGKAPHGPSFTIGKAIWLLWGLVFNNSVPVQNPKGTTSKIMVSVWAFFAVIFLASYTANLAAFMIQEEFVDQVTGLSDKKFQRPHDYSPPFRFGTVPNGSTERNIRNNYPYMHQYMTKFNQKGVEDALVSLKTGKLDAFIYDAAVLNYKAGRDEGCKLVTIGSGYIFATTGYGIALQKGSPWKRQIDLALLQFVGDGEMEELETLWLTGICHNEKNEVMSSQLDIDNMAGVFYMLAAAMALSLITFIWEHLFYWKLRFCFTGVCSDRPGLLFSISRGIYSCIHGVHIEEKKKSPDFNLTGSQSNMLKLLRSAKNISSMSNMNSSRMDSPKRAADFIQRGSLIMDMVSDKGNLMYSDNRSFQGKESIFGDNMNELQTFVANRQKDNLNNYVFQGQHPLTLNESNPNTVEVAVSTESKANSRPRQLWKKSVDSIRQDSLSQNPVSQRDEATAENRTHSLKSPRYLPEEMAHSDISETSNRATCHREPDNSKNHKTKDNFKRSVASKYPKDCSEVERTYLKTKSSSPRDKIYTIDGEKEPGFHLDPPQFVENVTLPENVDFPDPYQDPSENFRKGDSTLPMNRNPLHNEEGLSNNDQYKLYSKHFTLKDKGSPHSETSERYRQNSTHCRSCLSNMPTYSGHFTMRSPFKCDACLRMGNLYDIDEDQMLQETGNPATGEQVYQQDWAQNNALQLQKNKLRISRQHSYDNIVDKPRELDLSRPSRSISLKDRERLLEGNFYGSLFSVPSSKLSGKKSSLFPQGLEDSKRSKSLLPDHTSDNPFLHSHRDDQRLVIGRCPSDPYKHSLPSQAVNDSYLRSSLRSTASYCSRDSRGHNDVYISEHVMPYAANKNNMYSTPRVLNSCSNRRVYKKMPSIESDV", "assay": "Whole-cell patch clamp of mammalian cells (Ionworks Barracuda, IWB), NMDA potentiation", "assay_type": "cell-based", "details": "3 μM test article; HEK293 cells expressing human GRIN1/GRIN2A; co-application with EC20 L-glutamate and 30 μM glycine", "method": "NMDA potentiation was assessed using either whole cell patch clamp of mammalian cells which expressed NMDA receptors.\nWhole-Cell Patch Clamp of Mammalian Cells (Ionworks Barracuda (IWB)\nThe whole-cell patch-clamp technique was used to investigate the effects of compounds on GlunN1/GluN2A glutamate receptors expressed in mammalian cells.\nHEK293 cells were transformed with adenovirus 5 DNA and transfected with cDNA encoding the human GRIN1/GRIN2A genes. Stable transfectants were selected using G418 and Zeocin-resistance genes incorporated into the expression plasmid and selection pressure maintained with G418 and Zeocin in the medium. Cells were cultured in Dulbecco's Modified Eagle Medium/Nutrient Mixture (D-MEM/F-12) supplemented with 10% fetal bovine serum, 100 μg/ml penicillin G sodium, 100 μg/ml streptomycin sulphate, 100 μg/ml Zeocin, 5 μg/ml blasticidin and 500 μg/ml G418.\nTest article effects were evaluated in 8-point concentration-response format (4 replicate wells/concentration). […]\n• a) Intracellular solution (mM): 50 mM CsCl, 90 mM CsF, 2 mM MgCl2, 5 mM EGTA, 10 mM HEPES. […] Cell suspension will be pipetted into the wells (9 μL per well) of the PPC planar electrode. • b) Whole-cell recording configuration will be established via patch perforation with membrane currents recorded by on-board patch clamp amplifiers. • c) Two recordings (scans) will be performed. […]"}
{"smiles": "C[C@H](CCC[C@@H](C)O)[C@H]1CC[C@H]2[C@@H]3CC[C@H]4C[C@@](C)(O)CC[C@]4(C)[C@H]3CC[C@]12C", "note": "[Compound 24]", "values": [{"measurement": "GluN2A PCA IWB Ephys % potentiation at 3 μM", "value": "B (“B” indicates potentiation of >100%)"}]}
